Experimental data as given in US9546194B2, “Aminosteroids for the treatment of a PTP1B associated disease” (Ohr Pharmaceutical Inc., priority 2012, dated 2017).

Columns and labels:
[1] = target: T1, full length tyrosine phosphatase PTP1B (Homo sapiens, UniProt P18031); test: Inhibition of PTP1B (pNPP hydrolysis, absorbance at 405 nm); assay type: biochemical; details: 5 μM aminosteroid analogue; pNPP substrate; read-out: PTP1B % Inhib. at (5 μM)
T1 construct: purchased
T1 sequence (P18031 1-435): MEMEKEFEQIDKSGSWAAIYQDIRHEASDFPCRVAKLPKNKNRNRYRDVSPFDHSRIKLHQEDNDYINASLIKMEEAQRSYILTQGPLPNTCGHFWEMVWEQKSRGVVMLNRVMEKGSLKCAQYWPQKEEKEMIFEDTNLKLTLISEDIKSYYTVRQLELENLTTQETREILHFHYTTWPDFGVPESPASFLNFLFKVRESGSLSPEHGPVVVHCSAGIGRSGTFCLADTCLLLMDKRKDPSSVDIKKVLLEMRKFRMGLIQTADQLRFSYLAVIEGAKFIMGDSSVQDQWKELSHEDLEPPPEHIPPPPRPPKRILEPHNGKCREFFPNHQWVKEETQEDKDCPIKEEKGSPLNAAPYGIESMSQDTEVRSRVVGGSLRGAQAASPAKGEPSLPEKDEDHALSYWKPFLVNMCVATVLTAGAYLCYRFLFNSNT
Method: (§1) The aminosteroid analogues were tested for inhibition against the commercially available full length tyrosine phosphatase PTP1B. The ability of each analogue to inhibit the activity of PTP1B was measured in the presence of 5 μM of the aminosteroid analogue. The assay uses para-nitro-phenyl phosphate (pNPP), a non-specific substrate to assess phosphatase activity. Phosphatase activity was based on the ability of PTP1B to catalyze the hydrolysis of pNPP to p-nitrophenol (pNP).

[2] = target: T2, full length TCPTP (Homo sapiens, UniProt P17706); test: Inhibition of TCPTP (pNPP hydrolysis, same manner as PTP1B assay); assay type: biochemical; details: 200 μM inhibitor; pNPP substrate; read-out: TCPTP % Inhib. at (200 μM)
T2 construct: except full length TCPTP was used as the enzyme
T2 sequence (P17706 1-415): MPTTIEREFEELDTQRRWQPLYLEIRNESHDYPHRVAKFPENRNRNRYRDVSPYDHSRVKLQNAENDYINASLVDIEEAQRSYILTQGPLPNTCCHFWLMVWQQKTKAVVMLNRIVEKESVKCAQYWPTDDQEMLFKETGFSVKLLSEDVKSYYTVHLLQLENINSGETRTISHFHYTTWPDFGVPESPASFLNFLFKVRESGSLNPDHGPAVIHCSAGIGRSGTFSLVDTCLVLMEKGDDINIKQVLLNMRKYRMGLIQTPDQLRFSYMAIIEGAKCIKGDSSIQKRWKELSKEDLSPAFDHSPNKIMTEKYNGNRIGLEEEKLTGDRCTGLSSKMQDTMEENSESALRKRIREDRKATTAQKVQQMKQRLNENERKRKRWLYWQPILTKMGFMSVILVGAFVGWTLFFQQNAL
Method: as §1
The aminosteroid analogues were also tested for their ability to inhibit the tyrosine phosphatase TCPTP as an indication of their potential toxicity by the inhibition of the immune response. The TCPTP inhibition assay was done in the same manner as the PTP1B assay except full length TCPTP was used as the enzyme and the inhibitor was at a concentration of 200 μM. The results of the TCPTP inhibition assays are shown in Table 1, column 4 and show three compounds that inhibit TCPTP less than 50% even at a […] greater concentration.

[3] = Body weight change in ob/ob mouse; assay type: in vivo; details: ob/ob mice; 5 or 10 mg/kg ip every 3 days, 4 doses; % change in body weight vs study day 0, up to 30 days
Method: (§2) To determine in vivo efficacy of the aminosteroid analogues an ob/ob (Lep^ob) mouse model was used. Ob/ob mice are extensively used for screening of antidiabetic and/or anti-obesity agents. Ob/ob mice were treated with either saline or 5 or 10 mg/kg aminosteroid analogue every 3 days for a total of 4 doses via ip injection. Body weight, glucose tolerance and fasting blood glucose levels were measured for each group during the study. Each group had at least an N of 4 animals. All reagents and lab animals are commercially available.
Starting at study day 0, body weight measurements were taken every day for each group for up to 30 days. Percent change in body weight was calculated as the fractional response of body weight on study day X over the original body weight on study day 0.

[4] = tested on: ob/ob (Lep^ob) mouse; test: Fasting blood glucose (FBG) in ob/ob mouse; assay type: in vivo; details: ob/ob mice; 5 or 10 mg/kg ip every 3 days, 4 doses; study day 14 after overnight fast
Method: as §2
On study day 13, all animal groups were fasted overnight. On study day 14, 25 μL of whole blood was collected and analyzed for the glucose level (mg/dL) using a glucose analyzer.

[5] = tested on: ob/ob (Lep^ob) mouse; test: Oral glucose tolerance test (OGTT) in ob/ob mouse; assay type: in vivo; details: Mus musculus, 336 h; ob/ob mice; 5 or 10 mg/kg ip every 3 days, 4 doses; OGTT study day 14, 1.5 g/kg oral glucose, 0-120 min; read-out: AbAUC % Change From Saline
Method: as §2
On study day 14, an oral glucose tolerance test (OGTT) was performed to assess glucose tolerance. At time 0, an oral glucose challenge (1.5 g/kg) was administered by oral gavage. At time points 0, 15, 30, 60, 90, and 120 min post glucose load, 25 μl of whole blood was withdrawn from the tail vein of the animal and the glucose level was measured using a glucose analyzer. The glucose concentration vs time was plotted and the above baseline area under the curve (AbAUC) of the glucose excursion time curve was determined using trapezoidal rule analyses.

| Structure (SMILES) | inhibition at 5 µM [1] [%] | inhibition at 200 µM [2] [%] | % BW Nader [3] [%] | FBG % Change From Saline [4] [%] | change in vivo [5] [%] |
| --- | --- | --- | --- | --- | --- |
| CC(C)CCC[C@@H](C)[C@H]1CCC2C3C[C@@H](O)[C@H]4C[C@H](NCCCNCCCCNCCCN)CC[C@]4(C)C3CC[C@@]21C (stereo partly shown) [MSI-2517] | 51 | 11 | – | – | – |
| CC(C)CCC[C@@H](C)[C@H]1CCC2C3C[C@@H](O)[C@H]4C[C@@H](NCCCNCCCCNCCCN)CC[C@]4(C)C3CC[C@@]21C (stereo partly shown) [MSI-2516] | 56 | 25 | – | – | – |
| CC(C)[C@@H](CC[C@@H](C)[C@H]1CC[C@H]2[C@@H]3[C@H](O)C[C@H]4C[C@@H](NCCCNCCCCNCCCN)CC[C@]4(C)[C@H]3CC[C@]12C)OS(=O)(=O)O [MSI-1436, reference compound] | 54 | – | −52.6 | −51.3 | -55.9 |
| COC(=O)CC[C@@H](C)[C@H]1CCC2C3C(CC[C@@]21C)[C@@]1(C)CCC(NCCN(C)C)C[C@H]1C[C@H]3O (stereo partly shown) [MSI-2533] | – | 5 | – | – | – |
| COC(=O)CC[C@@H](C)[C@H]1CCC2C3C(CC[C@@]21C)[C@@]1(C)CCC(NCCNC(C)C)C[C@@H]1C[C@H]3S(C)(=O)=O (stereo partly shown) [MSI-2530] | 46 | 1 | – | – | – |
| CCNC(=O)N(CCCN(C)C)C(=O)C(C)[C@H]1CCC2C3CC[C@H]4CC(NCCNC)CC[C@]4(C)C3CC[C@@]21C (stereo partly shown) [MSI-2500] | 0 | – | – | – | – |
| COC(=O)CC[C@@H](C)[C@H]1CCC2C3CC[C@@H]4C[C@H](NCCN(C)C)CC[C@]4(C)C3CC[C@@]21C (stereo partly shown) [MSI-2534] | – | 0 | – | – | – |
| CC(C)CCC[C@@H](C)[C@H]1CCC2C3C[C@@H](O)[C@H]4C[C@@H](NCCCN)CC[C@]4(C)C3CC[C@@]21C (stereo partly shown) [MSI-2505] | 39 | – | – | – | – |
| COC(=O)CC[C@@H](C)[C@H]1CCC2C3C[C@H](O)[C@@H]4C[C@@H](NCCNC(C)C)CC[C@]4(C)C3CC[C@@]21C (stereo partly shown) [MSI-2524] | 103 | 15 | – | – | – |
| COC(=O)CC[C@@H](C)[C@H]1CCC2C3CC[C@@H]4C[C@@H](NCCNC(C)C)CC[C@]4(C)C3C[C@H](O)[C@@]21C (stereo partly shown) [MSI-2526] | 104 | – | – | – | – |
| COC(=O)CC[C@@H](C)[C@H]1CCC2C3C(CC[C@@]21C)[C@@]1(C)CC[C@@H](NCCNC(C)C)C[C@@H]1C[C@H]3SC (stereo partly shown) [MSI-2529] | 64 | 4 | – | – | – |
| COC(=O)CC[C@@H](C)[C@H]1CCC2C3C(CC[C@@]21C)[C@@]1(C)CC[C@H](NCCN2CCCCC2)C[C@@H]1C[C@H]3O (stereo partly shown) [MSI-2518] | 102 | 12 | – | – | – |
| COC(=O)CC[C@@H](C)[C@H]1CCC2C3C[C@H](O)[C@@H]4C[C@H](NCCNC(C)C)CC[C@]4(C)C3CC[C@@]21C (stereo partly shown) [MSI-2523] | 101 | 8 | – | – | – |
| CC(C)CCC[C@@H](C)[C@H]1CCC2C3C[C@@H](O)[C@H]4C[C@H](NCCCN)CC[C@]4(C)C3CC[C@@]21C (stereo partly shown) [MSI-2504] | 43 | 22 | – | – | – |
